IC50 data for 19 compounds are collected here from US11358953B2, “Functionalized peptides as antiviral agents” (ENANTA PHARMACEUTICALS, INC., priority 2020, dated 2022).

The structures appear in SMILES notation.

The target in the experiment is SARS-CoV-2 3CL-protease (Severe acute respiratory syndrome coronavirus 2 (2019-nCoV) (SARS-CoV-2), UniProt P0DTD1). In words: SARS-CoV-2 3C-like (3CL) protease fluorescence assay (FRET). The class given is biochemical. The following applies: recombinant SARS-CoV-2 3CL-protease 10 nM, 30 min preincubation at RT, substrate 40 μM, duplicate.
In the case of `CC(=O)N[C@H](C(=O)N1C[C@H]2[C@@H]([C@H]1C(=O)N[C@H](C#N)C[C@@H]1CCNC1=O)C2(C)C)C(C)(C)C` [Ex29, (1R,2S,5S)-3-((S)-2-acetamido-3,3-dimethylbutanoyl)-N—((S)-1-cyano-2-((S)-2-oxopyrrolidin-3-yl)ethyl)-6,6-dimethyl-3-azabicyclo[3.1.0]hexane-2-carboxamide], the IC50 (usually the concentration that gives 50% inhibition) is under 100 nM. Take `COc1cccc2[nH]c(C(=O)N3C[C@@H]4CCC[C@@H]4[C@H]3C(=O)N[C@@H](C[C@@H]3CCNC3=O)C(=O)CCl)cc12` [Ex1, (1S,3aR,6aS)—N—((S)-4-chloro-3-oxo-1-((S)-2-oxopyrrolidin-3-yl)butan-2-yl)-2-(4-methoxy-1H-indole-2-carbonyl)octahydrocyclopenta[c]pyrrole-1-carboxamide]: the IC50 was 100 to 1000 nM. Consider `CC1(C)[C@@H]2[C@@H](C(=O)N[C@H](C#N)C[C@@H]3CCNC3=O)N(C(=O)c3cc4cc(F)cc(F)c4[nH]3)C[C@@H]21` [Ex16, (1R,2S,5S)—N—((S)-1-cyano-2-((S)-2-oxopyrrolidin-3-yl)ethyl)-3-(5,7-difluoro-1H-indole-2-carbonyl)-6,6-dimethyl-3-azabicyclo[3.1.0]hexane-2-carboxamide], for which the half-maximal inhibitory concentration (IC50) is 100 to 1000 nM.

In the case of `CC(C)(C)[C@H](NC(=O)C1CCCCC1)C(=O)N1C[C@H]2[C@@H]([C@H]1C(=O)N[C@H](C#N)C[C@@H]1CCNC1=O)C2(C)C` [Ex25, (1R,2S,5S)—N—((S)-1-cyano-2-((S)-2-oxopyrrolidin-3-yl)ethyl)-3-((S)-2-(cyclohexanecarboxamido)-3,3-dimethylbutanoyl)-6,6-dimethyl-3-azabicyclo[3.1.0]hexane-2-carboxamide], the half-inhibitory concentration (IC50) is under 100 nM.

With `CCC(=O)N[C@H](C(=O)N1C[C@H]2[C@@H]([C@H]1C(=O)N[C@H](C#N)C[C@@H]1CCNC1=O)C2(C)C)C(C)(C)C` [Ex26, (1R,2S,5S)—N—((S)-1-cyano-2-((S)-2-oxopyrrolidin-3-yl)ethyl)-3-((S)-3,3-dimethyl-2-propionamidobutanoyl)-6,6-dimethyl-3-azabicyclo[3.1.0]hexane-2-carboxamide], the IC50 was under 100 nM. In the case of `O=C(NCc1ccccc1)C(=O)[C@H](C[C@@H]1CCNC1=O)NC(=O)[C@@H]1[C@H]2CCC[C@H]2CN1C(=O)c1cc2c(OC(F)F)cccc2[nH]1` [Ex15, (1S,3aR,6aS)—N—((S)-4-(benzylamino)-3,4-dioxo-1-((S)-2-oxopyrrolidin-3-yl)butan-2-yl)-2-(4-(difluoromethoxy)-1H-indole-2-carbonyl)octahydrocyclopenta[c]pyrrole-1-carboxamide], the concentration for half-maximal inhibition (IC50) was under 100 nM. Consider `CC1(C)[C@@H]2[C@@H](C(=O)N[C@H](C#N)C[C@@H]3CCNC3=O)N(C(=O)c3cc4c(Cl)cccc4o3)C[C@@H]21` [Ex22, (1R,2S,5S)-3-(4-chlorobenzofuran-2-carbonyl)-N—((S)-1-cyano-2-((S)-2-oxopyrrolidin-3-yl)ethyl)-6,6-dimethyl-3-azabicyclo[3.1.0]hexane-2-carboxamide], for which the half-inhibitory concentration (IC50) is over 1000 nM. Regarding `CC(C)(C)[C@H](NC(=O)Cc1ccccc1)C(=O)N1C[C@H]2[C@@H]([C@H]1C(=O)N[C@H](C#N)C[C@@H]1CCNC1=O)C2(C)C` [Ex24, (1R,2S,5S)—N—((S)-1-cyano-2-((S)-2-oxopyrrolidin-3-yl)ethyl)-3-((S)-3,3-dimethyl-2-(2-phenylacetamido)butanoyl)-6,6-dimethyl-3-azabicyclo[3.1.0]hexane-2-carboxamide], the IC50 is under 100 nM. Consider `CC1(C)C2CN(C(=O)c3cc4c(OC(F)F)cccc4[nH]3)[C@H](C(=O)N[C@H](C#N)C[C@@H]3CCNC3=O)C21` (stereo in doubt) [Ex11, (1S,2S,5R)—N—((S)-1-cyano-2-((S)-2-oxopyrrolidin-3-yl)ethyl)-3-(4-(difluoromethoxy)-1H-indole-2-carbonyl)-6,6-dimethyl-3-azabicyclo[3.1.0]hexane-2-carboxamide], for which the half-inhibitory concentration (IC50) lay within 100 to 1000 nM. Regarding `CC1(C)[C@@H]2[C@@H](C(=O)N[C@H](C#N)C[C@@H]3CCNC3=O)N(C(=O)c3cc4cc(F)c(F)cc4[nH]3)C[C@@H]21` [Ex17, (1R,2S,5S)—N—((S)-1-cyano-2-((S)-2-oxopyrrolidin-3-yl)ethyl)-3-(5,6-difluoro-1H-indole-2-carbonyl)-6,6-dimethyl-3-azabicyclo[3.1.0]hexane-2-carboxamide], the IC50 was in the range of 100 to 1000 nM. As for `COc1cccc2[nH]c(C(=O)N3C[C@@H]4CCC[C@@H]4[C@H]3C(=O)N[C@@H](C[C@@H]3CCNC3=O)C(=O)C(=O)NC3CCCCC3)cc12` [Ex9, (1S,3aR,6aS)—N—((S)-4-(cyclohexylamino)-3,4-dioxo-1-((S)-2-oxopyrrolidin-3-yl)butan-2-yl)-2-(4-methoxy-1H-indole-2-carbonyl)octahydrocyclopenta[c]pyrrole-1-carboxamide], the figure is under 100 nM.

For `COc1cccc2[nH]c(C(=O)N3C[C@@H]4CCC[C@@H]4[C@H]3C(=O)N[C@H](C=O)C[C@@H]3CCNC3=O)cc12` [Ex6, (1S,3aR,6aS)-2-(4-methoxy-1H-indole-2-carbonyl)-N—((S)-1-oxo-3-((S)-2-oxopyrrolidin-3-yl)propan-2-yl)octahydrocyclopenta[c]pyrrole-1-carboxamide], the 50% inhibitory concentration (IC50) was under 100 nM. Turning to `COc1cccc2[nH]c(C(=O)N3C[C@@H]4CCC[C@@H]4[C@H]3C(=O)N[C@@H](C[C@@H]3CCNC3=O)C(=O)CO)cc12` [Ex10, (1S,3aR,6aS)—N—((S)-4-hydroxy-3-oxo-1-((S)-2-oxopyrrolidin-3-yl)butan-2-yl)-2-(4-methoxy-1H-indole-2-carbonyl)octahydrocyclopenta[c]pyrrole-1-carboxamide], the IC50 was 100 to 1000 nM.

`N#C[C@H](C[C@@H]1CCNC1=O)NC(=O)[C@@H]1[C@H]2CCC[C@H]2CN1C(=O)c1cc2c(F)cc(F)cc2[nH]1` [Ex13, (1S,3aR,6aS)—N—((S)-1-cyano-2-((S)-2-oxopyrrolidin-3-yl)ethyl)-2-(4,6-difluoro-1H-indole-2-carbonyl)octahydrocyclopenta[c]pyrrole-1-carboxamide]: the IC50 was 100 to 1000 nM. To `N#C[C@H](C[C@@H]1CCNC1=O)NC(=O)[C@@H]1[C@H]2CCC[C@H]2CN1C(=O)c1cc2c(Cl)cccc2[nH]1` [Ex14, (1S,3aR,6aS)-2-(4-chloro-1H-indole-2-carbonyl)-N—((S)-1-cyano-2-((S)-2-oxopyrrolidin-3-yl)ethyl)octahydrocyclopenta[c]pyrrole-1-carboxamide] belongs 100 to 1000 nM. To `CC(C)(C)[C@H](NC(=O)C1CCCC1)C(=O)N1C[C@H]2[C@@H]([C@H]1C(=O)N[C@H](C#N)C[C@@H]1CCNC1=O)C2(C)C` [Ex23, (1R,2S,5S)—N—((S)-1-cyano-2-((S)-2-oxopyrrolidin-3-yl)ethyl)-3-((S)-2-(cyclopentanecarboxamido)-3,3-dimethylbutanoyl)-6,6-dimethyl-3-azabicyclo[3.1.0]hexane-2-carboxamide] belongs under 100 nM; to `N#C[C@H](C[C@@H]1CCNC1=O)NC(=O)[C@@H]1[C@H]2CCC[C@H]2CN1C(=O)c1cc2c(OC(F)F)cccc2[nH]1` [Ex3, (1S,3aR,6aS)—N—((S)-1-cyano-2-((S)-2-oxopyrrolidin-3-yl)ethyl)-2-(4-(difluoromethoxy)-1H-indole-2-carbonyl)octahydrocyclopenta[c]pyrrole-1-carboxamide], 100 to 1000 nM. As for `COc1cccc2[nH]c(C(=O)N3C[C@@H]4CCC[C@@H]4[C@H]3C(=O)N[C@H](C#N)C[C@@H]3CCCNC3=O)cc12` [Ex7, (1S,3aR,6aS)—N—((S)-1-cyano-2-((S)-2-oxopiperidin-3-yl)ethyl)-2-(4-methoxy-1H-indole-2-carbonyl)octahydrocyclopenta[c]pyrrole-1-carboxamide], the figure is under 100 nM; as for `N#C[C@H](C[C@@H]1CCNC1=O)NC(=O)[C@@H]1CCCN1C(=O)c1cc2c(OC(F)F)cccc2[nH]1` [Ex12, (S)—N—((S)-1-cyano-2-((S)-2-oxopyrrolidin-3-yl)ethyl)-1-(4-(difluoromethoxy)-1H-indole-2-carbonyl)pyrrolidine-2-carboxamide], over 1000 nM.
